Marks after values point to notes of the source that are not given here.
Key:
[1] = tested on: M. bovis; assay type: in vivo, mice; settings: Group 8; INH 5 mg/kg sc daily
[2] = Survival in LPS-induced endotoxic shock; assay type: in vivo, CBA mice
Method: The mortality results were evaluated using the Litchfield-Wilcoxon's probit analysis method and a computer program written to conduct probit analyses.

[3] = tested on: YAC-1 target cells; test: NK cytotoxic activity of splenocytes on YAC-1 target cells; assay type: in vivo, C3H/HeJ mice; settings: for Cytotoxicity Change (%): vs saline
[4] = tested on: Rauscher MuLV; test: Anti-viral response to Rauscher MuLV; assay type: in vivo, mice; settings: days −2, −1, 0, +1, and +2; for Viremia: ± SEM
Excerpt: Innate mechanisms of anti-viral immunity are important to survival of the host. The Rauscher murine leukemia virus (MuLV) is an example of a highly virulent animal retrovirus infection, first isolated and characterized by Dr. Rauscher from BALB/c mouse tissues in 1962. […] The virus employed in present GLP/blinded study was a murine leukemia complex known to induce progressive erythroleukemia in mice (i.e., Rauscher MuLV and replication-defective Rauscher spleen focus-forming virus). Disease manifested within about 6 days with death by about 50 days. Measurements of splenomegaly, blood reverse transcriptase, virus plaque assays (i.e., XC-plaque assay for viremia using SC-1 host cells) and serum anti-viral antibody titers were used to assess infection. Spleens achieved about 2.0 grams in weight within 21 days of infection, as compared with a normal spleen weights in an uninfected animals of about 0.1 gram.
Mice were inoculated with Rauscher MuLV complex (0.1 ml/7.8×10^4 PFU/mL) on day 0 and sacrificed on day 21. Test groups were comprised of 10 mice and control groups 6 mice. Control articles included saline and AZT (in drinking water at about 1.25 mg/mouse/day≈63 mg/kg/day/mouse). […] A non-infected group of mice was also sacrificed on day 21 to provide normal control values.
In EXAMPLE 38, SC-1 cells were originally derived from murine embryos, and XC cells (a rat tumor cell line induced by Rous Sarcoma Virus) were obtained from the ATCC in Rockville, Md.

## NNC(=O)c1ccncc1 [Isoniazid, reference compound]
[1]
  Survival Mean: 57 ± 2

## Glu-Trp
[2]; 24 hrs after LD99 LPS ip, 10 μg/kg ip daily x3 prophylactic
  Survivors (%): 36%
[2]; 24 hrs after LD99 LPS ip, 10 μg/kg ip daily x3 prophylactic, 11 animals
  Survivors: 4
[2]; 24 hrs after LD99 LPS ip, 100 μg/kg ip daily x3 prophylactic
  Survivors (%): 80* %
[2]; 24 hrs after LD99 LPS ip, 100 μg/kg ip daily x3 prophylactic, 10 animals
  Survivors: 8
[2]; 30 hrs after LD99 LPS ip, 10 μg/kg ip daily x3 prophylactic
  Survivors (%): 9%
[2]; 30 hrs after LD99 LPS ip, 10 μg/kg ip daily x3 prophylactic, 11 animals
  Survivors: 1
[2]; 30 hrs after LD99 LPS ip, 100 μg/kg ip daily x3 prophylactic
  Survivors (%): 40* %
[2]; 30 hrs after LD99 LPS ip, 100 μg/kg ip daily x3 prophylactic, 10 animals
  Survivors: 4
[3]; dose 1 (μg/kg ip daily 7 days)
  % Cytotoxicity (mean +/− S.D.): 10.7 ± 14%
[3]; dose 1
  Cytotoxicity Change (%): 25 ↑ %
[3]; dose 10 (μg/kg ip daily 7 days)
  % Cytotoxicity (mean +/− S.D.): 14.3 ± 1.7%
[3]; dose 10
  Cytotoxicity Change (%): 67 ↑ %
[3]; dose 1000 (μg/kg ip daily 7 days)
  % Cytotoxicity (mean +/− S.D.): 14.9 ± 2.9%
[3]; dose 1000
  Cytotoxicity Change (%): 75* ↑ %
[4]; 0.002 mg/kg
  Reduction Splenomegaly (%): −9%
  Spleen Weight (mean ± SD): 0.49 ± 0.31
[4]; 0.005 mg/kg
  Reduction Splenomegaly (%): −3%
  Spleen Weight (mean ± SD): 0.47 ± 0.29
  Viremia: 3.25 ± 0.27 log10PFU/ml
[4]; 0.02 mg/kg
  Reduction Splenomegaly (%): 12%
  Spleen Weight (mean ± SD): 0.42 ± 0.32
[4]; 0.05 mg/kg
  Reduction Splenomegaly (%): 30%
  Spleen Weight (mean ± SD): 0.36 ± 0.11
  Viremia: 2.99 ± 0.28 log10PFU/ml
[4]; 0.17 mg/kg
  Reduction Splenomegaly (%): 12%
  Spleen Weight (mean ± SD): 0.42 ± 0.26
[4]; 0.5 mg/kg
  Reduction Splenomegaly (%): −12%
  Spleen Weight (mean ± SD): 0.48 ± 0.3
  Viremia: 3.31 ± 0.39 log10PFU/ml
[4]; 1.75 mg/kg
  Reduction Splenomegaly (%): 3%
  Spleen Weight (mean ± SD): 0.45 ± 0.39
[4]; 5 mg/kg
  Reduction Splenomegaly (%): 6%
  Spleen Weight (mean ± SD): 0.44 ± 0.15
  Viremia: 3.43 ± 0.368 log10PFU/ml

From patent US6368788B1 (priority 1987, dated 2002)
